Measurements as given in US11535630B2, “Apelin receptor (APJ) agonists and uses thereof” (Research Triangle Institute, priority 2015, dated 2022).
Where two headings read alike, the source gives them in different places.

Tests used:
apelin receptor (APJ) = target: T1, apelin receptor (APJ) (Homo sapiens, UniProt P35414); assay: In vitro apelin agonist activity (methods of Giddings et al., Apelin-13 as positive control); assay type: cell-based
T1 sequence (P35414 1-380): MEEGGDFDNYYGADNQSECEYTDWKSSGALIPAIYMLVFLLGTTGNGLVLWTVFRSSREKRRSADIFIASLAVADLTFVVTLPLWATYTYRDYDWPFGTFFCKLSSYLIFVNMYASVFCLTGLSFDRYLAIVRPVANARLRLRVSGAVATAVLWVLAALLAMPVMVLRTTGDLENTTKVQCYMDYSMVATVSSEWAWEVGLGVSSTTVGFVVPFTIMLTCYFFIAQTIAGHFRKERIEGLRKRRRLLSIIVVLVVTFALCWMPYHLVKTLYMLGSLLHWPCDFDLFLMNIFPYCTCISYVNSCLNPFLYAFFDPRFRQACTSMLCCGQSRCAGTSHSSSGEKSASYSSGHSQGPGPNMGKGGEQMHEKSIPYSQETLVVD
Source text: Characterization of the Apelin Agonist Activity of the Compounds
1:39-47, the contents of which are hereby incorporated by reference in its entirety. Using the methods described in Giddings et al. and Apelin-13 as a positive control.

[1] = Caco-2 cellular uptake / permeability assay (A-to-B, B-to-A); assay type: in vitro ADME; conditions: human, Caco-2, pH 7.4
Protocol: 5.3. Cellular Uptake Assay
Caco-2 cells (clone C2BBe1) were obtained from American Type Culture Collection (Manassas, Va,). Cell monolayers were grown to confluence on collagen-coated, microporous, polycarbonate membranes in 12-well Costar Transwell plates. Details of the plates and their certification are shown below. The permeability assay buffer was Hanks' balanced salt solution (HBSS) containing 10 mM HEPES and 15 mM glucose at a pH of 7.4. The buffer in the receiver chamber also contained 1% bovine serum albumin. The dosing solution concentration was 5 μM for each test article in the assay buffer. Cell monolayers were dosed on the apical side (A-to-B) or basolateral side (B-to-A) and incubated at 37° C. with 5% CO2 in a humidified incubator. Samples were taken from the donor and receiver chambers at 120 minutes. Each determination was performed in duplicate. After the experiment, all assay buffers were removed from the inserts. Cell monolayers were dosed with blank 500 μM lucifer yellow on the A-to-B side and blank HBSS on the B-to-A side and incubated at 37° C. Samples were taken from the B-to-A side at 60 minutes. The flux of lucifer yellow was measured for each monolayer to ensure no damage was inflicted to the cell monolayers during the flux period. All samples were analyzed by LC-MS/MS using electrospray ionization.
Where, dCr/dt is the slope of the cumulative concentration in the receiver compartment versus time in μM s^−1;
Vr is the volume of the receiver compartment in cm^3;
Vd is the volume of the donor compartment in cm^3;
CA is the average of the nominal dosing concentration and the measured 120-minute donor concentration in μM;
CN is the nominal concentration of the dosing solution in μM;
Cr^final is the cumulative receiver concentration in μM at the end of the incubation period;
Cd^final is the concentration of the donor in μM at the end of the incubation period.
Efflux ratio (ER) is defined as Papp (B-to-A)/Papp (A-to-B).

male Sprague-Dawley rats = assay: In vivo blood pressure lowering in conscious telemetered rats, oral gavage; set-up: species or system rat; conditions: for Diastolic blood pressure, 2-5 h mean change from baseline / MAP, 2-5 h mean change from baseline / Systolic blood pressure, 2-5 h mean change from baseline: rat; for Effect on blood pressure (in words): oral gavage 7.5, 15 or 30 mg/kg, male Sprague-Dawley rats
Protocol: In Vivo Blood Pressure Lowering Activity of the Compounds
Select compounds were evaluated for their effects upon oral administration on hemodynamic changes, including blood pressure reduction, in conscious, telemetered male Sprague-Dawley rats. Apelin peptides are known to lower blood pressure, e.g., Tatemoto, K., et.al. Regul. Pept. 2001, 99, 87-92.
Animals were approximately 7-9 weeks of age and weighed between 247 g to 263 g just prior to surgery. Dose levels administered were 7.5, 15 or 30 mg/kg, dose volumes were 10 mL/kg, and dose route of administration was oral gavage. Animals were assigned to a crossover experimental treatment schedule as shown below.
Collected data included systolic, diastolic, and mean arterial blood pressure (MAP). Data collection time points were for pre-dose baseline approximately 48 h (prior to treatment 1) or approximately 24 h (prior to treatment 2-4) for 10 sec every 2 min. Data collection post-dose was collected through approximately 24 h (data collected for 10 sec every 2 min) per treatment. Resulting data is presented below as the 2-5 h mean change from baseline in mmHg.

[2] = apelin agonist potency as listed in Table 3 (Cellular Uptake Results), read-out: EC50
[3] = in vitro apelin agonist activity, methods of Giddings et al., Apelin-13 as positive control, read-out: EC50 (nM) Ave

Structure (SMILES)	EC50 (apelin receptor (APJ); [2]) [nM]	EC50 (apelin receptor (APJ); [3]) [nM]	efflux ratio at 120 min, 5 μM [1]	Diastolic blood pressure, 2-5 h mean change from baseline (male Sprague-Dawley rats; 7.5 mg/kg oral gavage) [mmHg]	MAP, 2-5 h mean change from baseline (male Sprague-Dawley rats; 7.5 mg/kg oral gavage) [mmHg]	Systolic blood pressure, 2-5 h mean change from baseline (male Sprague-Dawley rats; 7.5 mg/kg oral gavage) [mmHg]	Diastolic blood pressure, 2-5 h mean change from baseline (male Sprague-Dawley rats; 15 mg/kg oral gavage) [mmHg]	MAP, 2-5 h mean change from baseline (male Sprague-Dawley rats; 15 mg/kg oral gavage) [mmHg]	Systolic blood pressure, 2-5 h mean change from baseline (male Sprague-Dawley rats; 15 mg/kg oral gavage) [mmHg]	Diastolic blood pressure, 2-5 h mean change from baseline (male Sprague-Dawley rats; 30 mg/kg oral gavage) [mmHg]	MAP, 2-5 h mean change from baseline (male Sprague-Dawley rats; 30 mg/kg oral gavage) [mmHg]	Systolic blood pressure, 2-5 h mean change from baseline (male Sprague-Dawley rats; 30 mg/kg oral gavage) [mmHg]	Effect on blood pressure (in words) (male Sprague-Dawley rats)
COc1cccc(OC)c1-c1cc(C(=O)N[C@@H](CCN2CCCC(F)(F)C2)CC(=O)Nc2nccs2)nn1C1CCCC1 [compound 384, (3S)-3-{[1-cyclopentyl-5-(2,6-dimethoxyphenyl)-1H-pyrazol-3-yl]formamido}-5-(3,3-difluoropiperidin-1-yl)-N-(1,3-thiazol-2-yl)pentanamide]	15	15	1.7										
CCc1ccccc1-c1cc(C(=O)N[C@@H](CCN2CCCC(F)(F)C2)CC(=O)Nc2nccs2)nn1C1CCCC1 [compound 410, (3S)-3-{[1-cyclopentyl-5-(2-ethylphenyl)-1H-pyrazol-3-yl]formamido}-5-(3,3-difluoropiperidin-1-yl)-N-(1,3-thiazol-2-yl)pentanamide]	7	7	1										
COc1cccc(OC)c1-c1cc(C(=O)N[C@@H](CCN2CCCC(F)(F)C2)CC(=O)NC2CCC2)nn1C1CCCC1 [compound 348, (3S)-N-cyclobutyl-3-{[1-cyclopentyl-5-(2,6-dimethoxyphenyl)-1H-pyrazol-3-yl]formamido}-5-(3,3-difluoropiperidin-1-yl)pentanamide]	15	15	2.1										
CCc1ccccc1-c1cc(C(=O)N[C@@H](CCN2CCCCC2)CC(=O)NC2CCC2)nn1C1CCCC1 [compound 363, (3S)-N-cyclobutyl-3-{[1-cyclopentyl-5-(2-ethylphenyl)-1H-pyrazol-3-yl]formamido}-5-(piperidin-1-yl)pentanamide]	44	44	3.6										
O=C(N[C@@H](CCN1CCCC(F)(F)C1)Cc1nnn[nH]1)c1cc(-c2ccccc2C(F)(F)F)n(C2CCCC2)n1 [compound 551, 1-cyclopentyl-N-[(2S)-4-(3,3-difluoropiperidin-1-yl)-1-(1H-1,2,3,4-tetrazol-5-yl)butan-2-yl]-5{2-(trifluoromethyl)phenyl]-1H-pyrazole-3-carboxamide]		25		−4.3	−4.5	−6.6	−7.3	−8.5	−9.6	−8.4	−9.8	−11.3	dose-dependent, mild sustained decrease in blood pressure
COc1cccc(OC)c1-c1cc(C(=O)N[C@@H](CCN2CCC(F)(F)CC2)CC(=O)NC2CCC2)nn1C1CCCC1 [compound 335, (3S)-N-cyclobutyl-3-{[1-cyclopentyl-5-(2,6-dimethoxyphenyl)-1H-pyrazol-3-yl]formamido}-5-(4,4-difluoropiperidin-1-yl)pentanamide]	63	63	1										
Cl.O=C(O)C[C@H](CCN1CCCC(F)(F)C1)NC(=O)c1cc(-c2ccccc2C(F)(F)F)n(C2CCCC2)n1 [compound 423, (3S)-3-({1-cyclopentyl-5-[2-(trifluoromethyl)phenyl]-1H-pyrazol-3-yl}formamido)-5-(3,3-difluoropiperidin-1-yl)pentanoic acid]		35		−9.9	−10.0	−13.0	−7.3	−8.4	−9.8	−8.3	−9.3	−10.7	mild sustained decrease in blood pressure
